From US7022716B2, “Cyclic amine phenyl beta-3 adrenergic receptor agonists” (Wyeth, priority 2000, dated 2006) come the findings set out here.

Bounds are passed on as bounds.

As usually defined, the melting point is the temperature of the solid-liquid transition.

For data set [1], the target named is T1, human β3 adrenergic receptor (Homo sapiens, UniProt P13945).
T1 construct: Full length β3 AR clones (402 amino acids) containing the last 6 amino acids of hβ3-AR are prepared; expressed in transfected cells; host or cells: CHO (Chinese hamster ovary) cells
T1 sequence (P13945 whole entry): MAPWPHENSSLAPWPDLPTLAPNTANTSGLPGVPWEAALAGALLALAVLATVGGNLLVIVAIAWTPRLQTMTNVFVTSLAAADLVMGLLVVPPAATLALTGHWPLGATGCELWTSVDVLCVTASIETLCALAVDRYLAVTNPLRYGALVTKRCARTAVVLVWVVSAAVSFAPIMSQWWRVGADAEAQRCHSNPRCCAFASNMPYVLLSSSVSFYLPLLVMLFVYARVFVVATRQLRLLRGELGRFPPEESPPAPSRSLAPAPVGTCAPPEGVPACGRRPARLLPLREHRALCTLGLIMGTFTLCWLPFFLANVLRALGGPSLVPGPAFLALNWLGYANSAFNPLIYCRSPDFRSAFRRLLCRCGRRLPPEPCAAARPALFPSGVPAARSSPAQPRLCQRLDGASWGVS
The experiment in a line: cAMP (SPA) response in CHO cells transfected with human β3 adrenergic receptor. Also noted: key: fraction of maximal isoproterenol (10^-5 M) response. The class given is cell-based. Particulars: maximal response relative to maximal response of isoproterenol at 10^-5 M. The method in brief: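 Reactions were stopped with 0.2N HCl and neutralised, and cAMP was measured by SPA. Activity is expressed as percent of the maximal 10^−5 M isoproterenol response.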

On to `O=C1NC(=O)C(Cc2ccc(N3CCC(NC[C@H](O)c4ccc(O)c(NS(=O)(=O)c5ccccc5)c4)CC3)cc2)S1` (stereo partly drawn) [Example 96, N-(5-{(1R)-2-[(1-{4-[(2,4-Dioxo-1,3-thiazolidin-5-yl)methyl]phenyl}piperidin-4-yl)amino]-1-hydroxyethyl}-2-hydroxyphenyl)benzenesulfonamide], for which the melting point is > 150 °C (dec.). In addition, in data set [1], the “IA(β3)” value was found to be 0.93.
As to `CS(=O)(=O)Nc1cc(C(O)CNC2CCN(c3ccc(-c4nnn[nH]4)cc3)CC2)ccc1O` (centres unmarked) [Example 97, N-[2-Hydroxy-5-(1-hydroxy-2-{1-[4-(1H-tetrazol-5-yl)-phenyl]-piperidin-4-ylamino}-ethyl)-phenyl]-methanesulfonamide], the melting point was > 175 °C (dec.). Moreover, the “IA(β3)” value in data set [1] turned out to be 0.9.
As for `CCOC(=O)Cn1nnnc1-c1ccc(N2CCC(NC[C@H](O)c3ccc(O)c(NS(C)(=O)=O)c3)CC2)cc1` [Example 98], the melting point is > 140 °C (dec.). Moreover, in data set [1], the “IA(β3)” value turned out to be 1.
On the same counts, the results for `CS(=O)(=O)Nc1cc([C@@H](O)CNC2CCN(c3ccc(-c4nnnn4CC(=O)O)cc3)CC2)ccc1O` [Example 99, [5-(4-{4-[((2R)-2-Hydroxy-2-{4-hydroxy-3-[(methylsulfonyl)amino]phenyl}ethyl)amino]-1-piperidinyl}phenyl)-1H-tetraazol-1-yl]acetic acid] are > 210 °C (dec.) and 0.97.
In the case of `CS(=O)(=O)Nc1cc([C@@H](O)CNC2CCN(c3ccc(-c4nnn(CC(=O)O)n4)cc3)CC2)ccc1O` [Example 100, [5-(4-{4-[((2R)-2-Hydroxy-2-{4-hydroxy-3-[(methylsulfonyl)amino]phenyl}ethyl)amino]-1-piperidinyl}phenyl)-2H-tetraazol-2-yl]acetic acid], the melting point is > 240 °C (dec.). Also, the “IA(β3)” value in data set [1] is 0.9.
As for `O=C1NC(=O)C(Cc2ccc(N3CCC(NC[C@H](O)COc4cccnc4)CC3)cc2)S1` (stereo partly drawn) [Example 125, 5-(4-{4-[(2S)-2-Hydroxy-3-(pyridin-3-yloxy)-propylamino]-piperidin-1-yl}-benzyl)-thiazolidine-2,4-dione], the melting point was in the range of 130 to 132 °C. Moreover, the “IA(β3)” value in data set [1] came to 0.36.
As for `O=C1NC(=O)C(Cc2ccc(N3CCC(NC[C@@H](O)c4cccnc4)CC3)cc2)S1` (stereo partly drawn) [Example 131, 5-{4-[4-((2S)-2-Hydroxy-2-pyridin-3-yl-ethylamino)-piperidin-1-yl]-benzyl}-thiazolidine-2,4-dione], the melting point is > 88 °C (dec.). Further, the “IA(β3)” value in data set [1] stood at 0.52.
Take `O=C1NC(=O)C(Cc2ccc(N3CCC(NC[C@H](O)c4cccnc4)CC3)cc2)S1` (stereo partly drawn) [Example 136, 5-{4-[4-((2R)-2-Hydroxy-2-pyridin-3-yl-ethylamino)-piperidin-1-yl]-benzyl}-thiazolidine-2,4-dione]: the melting point is 87 °C (dec.). Moreover, the “IA(β3)” value in data set [1] stood at 0.9.
For `CS(=O)(=O)Nc1cc([C@@H](O)CNC2CCN(c3ccc(-c4cc(=O)[nH][nH]4)cc3)CC2)ccc1O` [Example 146, N-[(2R)-2-Hydroxy-5-(1-hydroxy-2-{1-[4-(5-oxo-2,5-dihydro-1H-pyrazol-3-yl)-phenyl]-piperidin-4-ylamino}-ethyl)-phenyl]-methanesulfonamide], the melting point is 225 to 227 °C. The “IA(β3)” value in data set [1] turned out to be 0.91.
For the molecule `CCOC(=O)c1ccc(N2CCC(NC[C@H](O)COc3cccc4[nH]c(=O)[nH]c34)CC2)cc1` [Example 179], the melting point was > 170 °C (dec.). For the same molecule, the “IA(β3)” value in data set [1] is reported as 0.85.
Take `CS(=O)(=O)Nc1cc([C@@H](O)CNC2CCN(c3ccc(CC(=O)O)cc3)CC2)ccc1O` [Example 182, (4-{4-[(2R)-2-Hydroxy-2-(4-hydroxy-3-methanesulfonylamino-phenyl)-ethylamino]-piperidin-1-yl}-phenyl)-acetic acid]: the melting point is > 140 °C (dec.). For the same molecule, the “IA(β3)” value in data set [1] came out at 0.86.
Take `CCOC(=O)/C=C/c1ccc(N2CCC(NC[C@H](O)c3ccc(O)c(NS(C)(=O)=O)c3)CC2)cc1` [Example 183, (E)-3-(4-{4-[(2R)-2-Hydroxy-2-(4-hydroxy-3-methanesulfonylamino-phenyl)-ethylamino]-piperidin-1-yl}-phenyl)-acrylic acid ethyl ester]: the melting point was 103 to 106 °C. In addition, in data set [1], the “IA(β3)” value was 0.84.
The molecule `CS(=O)(=O)Nc1cc([C@@H](O)CNC2CCN(c3ccc(CCC(=O)O)cc3)CC2)ccc1O` [Example 184, 3-(4-{4-[(R)-2-Hydroxy-2-(4-hydroxy-3-methanesulfonylamino-phenyl)-ethylamino]-piperidin-1-yl}-phenyl)-propionic acid] yielded a melting point of 130 to 133 °C. Also, in data set [1], the “IA(β3)” value stood at 1.1.
Take `CS(=O)(=O)Nc1cc([C@@H](O)CNC2CCN(c3ccc(COCC(=O)O)cc3)CC2)ccc1O` [Example 185, (4-{4-[(2R)-2-Hydroxy-2-(4-hydroxy-3-methanesulfonylamino-phenyl)-ethylamino]-piperidin-1-yl}-benzyloxy)-acetic acid]: the melting point was > 145 °C (dec.). In data set [1], the “IA(β3)” value is 0.69.
On to `CCOC(=O)CCc1ccc(N2CCC(NC[C@H](O)c3ccc(O)c(NS(C)(=O)=O)c3)CC2)cc1` [Example 187, 3-(4-{4-[(2R)-2-Hydroxy-2-(4-hydroxy-3-methanesulfonylamino-phenyl)-ethylamino]-piperidin-1-yl}-phenyl)-propionic acid ethyl ester], for which the melting point fell in the range of 76 to 78 °C. Also, the “IA(β3)” value in data set [1] is 1.03.
Regarding `CCOC(=O)C(=Cc1ccc(N2CCC(NCC(O)c3ccc(O)c(NS(C)(=O)=O)c3)CC2)cc1)C(=O)OCC` (centres unmarked) [Example 188, 2-(4-{4-[2-Hydroxy-2-(4-hydroxy-3-methanesulfonylamino-phenyl)-ethylamino]-piperidin-1-yl}-benzylidene)-malonic acid diethyl ester], the melting point was > 80 °C (dec.). Besides, in data set [1], the “IA(β3)” value is on record as 0.91.
Turning to `CS(=O)(=O)Nc1cc([C@@H](O)CNC2CCN(c3ccc(C(N)=O)cc3)CC2)ccc1O` [Example 190, 4-{4-[(2R)-2-Hydroxy-2-(4-hydroxy-3-methanesulfonylamino-phenyl)-ethylamino]-piperidin-1-yl}-benzamide], the melting point was > 75 °C (dec.). In addition, the “IA(β3)” value in data set [1] worked out at 1.12.
`CS(=O)(=O)Nc1cc([C@@H](O)CNC2CCN(c3ccc(C(=O)NOCc4ccccc4)cc3)CC2)ccc1O` [Example 191, N-Benzyloxy-4-{4-[(2R)-2-hydroxy-2-(4-hydroxy-3-methanesulfonylamino-phenyl)-ethylamino]-piperidin-1-yl}-benzamide]: the melting point is > 70 °C (dec.). The “IA(β3)” value in data set [1] amounted to 1.
For `CCOC(=O)CC[C@H](NC(=O)c1ccc(N2CCC(NC[C@H](O)c3ccc(O)c(NS(C)(=O)=O)c3)CC2)cc1)C(=O)OCC` [Example 192, Diethyl(2S)-2-[(4-{4-[((2R)-2-hydroxy-2-{4-hydroxy-3-[(methylsulfonyl)amino]phenyl}ethyl)amino]-1-piperidinyl}benzoyl)amino]pentanedioate], the melting point is > 75 °C (dec.). Also, the “IA(β3)” value in data set [1] came out at 0.97.
The matching figures for `CCOC(=O)CCNC(=O)c1ccc(N2CCC(NC[C@H](O)c3ccc(O)c(NS(C)(=O)=O)c3)CC2)cc1` [Example 193, Ethyl3-[(4-{4-[((2R)-2-hydroxy-2-{4-hydroxy-3-[(methylsulfonyl)amino]phenyl}-ethyl)amino]-1-piperidinyl}benzoyl)amino]propanoate.]: > 95 °C (dec.) and 0.9.
Turning to `CS(=O)(=O)Nc1cc([C@@H](O)CNC2CCN(c3ccc(C(=O)N[C@@H](CCC(=O)O)C(=O)O)cc3)CC2)ccc1O` [Example 194, (2S)-2-[(4-{4-[((2R)-2-Hydroxy-2-{4-hydroxy-3-[(methylsulfonyl)amino]phenyl}-ethyl)amino]-1-piperidinyl}benzoyl)amino]pentanedioic acid], the melting point was > 230 °C (dec.). Besides, the “IA(β3)” value in data set [1] is on record as 0.88.
As for `CS(=O)(=O)Nc1cc([C@@H](O)CNC2CCN(c3ccc(C(=O)NCCC(=O)O)cc3)CC2)ccc1O` [Example 195, N-(4-{4-[((2R)-2-Hydroxy-2-{4-hydroxy-3-[(methylsulfonyl)amino]phenyl}ethyl)amino]-1-piperidinyl}benzoyl)-bete-alanine], the melting point was > 170 °C (dec.). Besides, the “IA(β3)” value in data set [1] was determined as 0.98.
As for `CCOC(=O)CNC(=O)c1ccc(N2CCC(NC[C@H](O)c3ccc(O)c(NS(C)(=O)=O)c3)CC2)cc1` [Example 196, Ethyl[(4-{4-[((2R)-2-hydroxy-2-{4-hydroxy-3-[(methylsulfonyl)amino]phenyl}ethyl)amino]-1-piperidinyl}benzoyl)amino]acetate], the melting point was > 140 °C (dec.). For the same molecule, the “IA(β3)” value in data set [1] worked out at 1.1.
Turning to `CCOC(=O)[C@H](CC(C)C)NC(=O)c1ccc(N2CCC(NC[C@H](O)c3ccc(O)c(NS(C)(=O)=O)c3)CC2)cc1` [Example 198, (2S)-2-(4-{4-[(2R)-2-Hydroxy-2-(4-hydroxy-3-methanesulfonylamino-phenyl)-ethylamino]-piperidin-1-yl}-benzoylamino)-4-methyl-pentanoic acid ethyl ester:], the melting point was > 85 °C (dec.). Further, in data set [1], the “IA(β3)” value was 0.97.
Regarding `COC(=O)[C@@H]1CCCN1C(=O)c1ccc(N2CCC(NC[C@H](O)c3ccc(O)c(NS(C)(=O)=O)c3)CC2)cc1` [Example 200, 1-(4-{4-[(2R)-2-Hydroxy-2-(4-hydroxy-3-methanesulfonylamino-phenyl)-ethylamino]-piperidin-1-yl}-benzoyl)-pyrrolidine-(2S)-2-carboxylic acid methyl ester], the melting point is > 80 °C (dec.). Further, in data set [1], the “IA(β3)” value was 1.1.
